Source: patent US20240408050A1, “DIHYDROMYRICETIN SPRAY-DRIED DISPERSION FORMULATIONS AND METHODS FOR FORMING THEM” (The Trustees of Princeton University, priority 2018, published 2024)
Values after ≈ are worked out from the molar mass of the structure shown. Like-named read-outs stand apart in the source and are kept apart here.

Tests used:
[1] = Equilibrium solubility of crystalline DHM in simulated intestinal fluids (FeSSIF, FaSSIF); format: physicochemical; conditions: thermodynamic from solid
[2] = In vitro release in fed state simulated intestinal fluid (FeSSIF), Example 1, FIG. 3; format: physicochemical; conditions: 37° C., loaded at 1400 μg/mL DHM, 360 minute timepoint
Method: (§1) Release Kinetics in Vitro: Simulated gastric fluid (FaSSGF) and intestinal fluids (FaSSIF and FeSSIF) are prepared according to the manufacturer's instructions. Dissolution tests are performed with spray dried DHM-containing powders or tablets with the appropriate controls. Release under Gastric Conditions: DHM-containing spray dried powder samples are suspended in prewarmed FaSSGF (37° C.) to achieve a drug (DHM) concentration of roughly 10-100× the previously determined equilibrium solubility in the FaSSGF fluid (e.g., 75 μg/mL) by pipetting up and down vigorously multiple times. The samples are incubated for the duration of the study (e.g., 30 min) at 37° C. […] The samples are then diluted as appropriate to fall within the detection range and analyzed by high-performance liquid chromatography (HPLC), with the mobile phase as 80:20 H2O: acetonitrile (each with 0.05% trifluoroacetic acid), and with detection with UV-Vis at 290 nm. The concentration of DHM is then calculated based on a calibration curve. […] The samples are then diluted as appropriate to fall within the detection range and analyzed by HPLC, with the mobile phase as 80:20 H2O: acetonitrile (each with 0.05% trifluoroacetic acid), and with detection with UV-Vis at 290 nm. The concentration of DHM is then calculated based on a calibration curve. […]

[3] = In vitro release in FeSSIF with 1% v/v Tween 20 (Polysorbate 20), Example 2, FIG. 4; format: physicochemical; conditions: FeSSIF + 1% v/v Tween 20, 37° C.
Method: as §1

[4] = reference [17]; cited from earlier work
[5] = low solubility and permeability; cited from earlier work

solubility thermodynamic ([1]; Fasted State Simulated Intestinal Fluid (FaSSIF), pH 6.5, fassif, fasted state simulated intestinal fluid, pH 6.5, read-out: equilibrium solubility in FaSSIF): ~50 µg/mL (≈ 156 µM) | solubility thermodynamic ([1]; Fed State Simulated Intestinal Fluid (FeSSIF), pH 5, fessif, fed state simulated intestinal fluid, pH 5.0, read-out: equilibrium solubility in FeSSIF): ~140 µg/mL (≈ 437 µM) | effect of Tween 20 (Polysorbate 20) surfactant on solubility of DHM [3]: increased
SMILES: O=C1c2c(O)cc(O)cc2O[C@H](c2cc(O)c(O)c(O)c2)[C@H]1O [DHM, dihydromyricetin]
dissolved DHM concentration at completion of the release study [2]: approximately reached its previously determined equilibrium concentration | oral bioavailability [4]: less than 5% | BCS class [5]: BCS class IV
